“And” between values parts separate entries of the source, which are not always exact repeats. Equal values may be shown once.
How the values were obtained:
[1] = Chemical stability of dexbudesonide HFA 134a composition of Example 4 in epoxy-phenol lacquered aluminium cans (HPLC, epimeric distribution); format: physicochemical
Procedure: A composition containing 48 mg of dexbudesonide (200 μg/dose), 15% (w/w) ethanol, 1.3% (w/w) glycerol in HFA 134a to 12 ml can was distributed in epoxy-phenol lacquered aluminium cans and was stored at 40° C.

[2] = Chemical stability of dexbudesonide HFA 227 compositions of Example 5 in anodised aluminium cans (HPLC, epimeric distribution); format: physicochemical; settings: for % Residual dexbudesonide / % residual dexbudesonide relative to t = 0: HFA 227, anodised aluminium cans
Procedure: Compositions containing 7.2, 12, 16.8 mg of dexbudesonide (corresponding to 30, 50 and 70 μg/dose respectively), ethanol, 0.9 (w/w) PEG 400 or isopropyl myristate (IPM) in HFA 227 to 12 ml can was distributed in aluminium anodised cans and was stored 70 days at 50° C.

[3] = Fine particle dose of dexbudesonide solution compositions, Andersen Cascade Impactor; format: physicochemical; settings: for MMAD: low volatility compound 0.9% (w/w); for FPF: Fine particle dose/Delivered dose × 100; for Delivered dose: ex actuator; for FPD: particles lower than 4.7 μm, average of 10 shots; for Metered dose: sum of delivered dose and actuator residue
Procedure: The fine particle dose (FPD: weight of particles having an aerodynamic diameter lower than 4.7 μm) of dexbudesonide solution compositions in HFA 134a or HFA 227, prepared following the examples 4 and 5, was determined.
The experiments were performed using the Andersen Cascade Impactor and the data obtained are average values from 10 shots.
The FPD gives a direct measure of the mass of particles within the specified size range and is closely related to the efficacy of the product.

[4] = Effect of different acids on chemical stability of the composition of Example 1 in epoxy-phenol resin (4) coated cans; format: physicochemical; settings: epoxy-phenol (4) coated cans
Procedure: The effect of different acids on the chemical stability of the composition of Example 1 was studied.
The stability of the compositions was tested after 1, 2 and 5 months storage at 40° C. in epoxy-phenol resin (4) coated cans.

[5] = Chemical stability of flunisolide HFA 134a composition of Example 7 in cans of different types (percent drug remaining, HPLC); format: physicochemical
Procedure: A composition containing 60 mg of flunisolide (250 μg/dose), […], 1% (w/w) glycerol in HFA 134a to 12 ml/can was distributed in anodised aluminium, glass cans or in cans having different internal coatings and were stored for 41 days at 50° C.

[6] = as above; format: physicochemical; remark: listed apart in the source
[7] = flunisolide/ethanol/HFA compositions of WO 95/17195, Table 8 of that application; cited from earlier work
[8] = metered dose 30 μg, ethanol 5% (w/w), IPM 0.9% (w/w), t = 70 days at 50° C.
[9] = metered dose 30 μg, ethanol 5% (w/w), PEG 400 0.9% (w/w), t = 70 days at 50° C.
[10] = metered dose 50 μg, ethanol 8% (w/w), IPM 0.9% (w/w), t = 70 days at 50° C.
[11] = metered dose 50 μg, ethanol 8% (w/w), PEG 400 0.9% (w/w), t = 70 days at 50° C.
[12] = metered dose 70 μg, ethanol 7% (w/w), IPM 0.9% (w/w), t = 70 days at 50° C.
[13] = metered dose 70 μg, ethanol 7% (w/w), PEG 400 0.9% (w/w), t = 70 days at 50° C.
[14] = HFA 134a, 60 μg/shot, ethanol 8% (w/w), IPM 0.9% (w/w)
[15] = HFA 227, 63 μg/shot, ethanol 7% (w/w), IPM 0.9% (w/w)
[16] = HFA 227, 63 μg/shot, ethanol 7% (w/w), PEG 400 0.9% (w/w)
[17] = can: Anodised aluminum, t = 41 days at 50° C.
[18] = can: Epoxy phenol resin (2), t = 41 days at 50° C.
[19] = can: Epoxy phenol resin (3), t = 41 days at 50° C.
[20] = can: Anodised aluminum, t = 93 days (50° C. per title)
[21] = can: Epoxy phenol resin (1), t = 41 days at 50° C.
[22] = can: Epoxy phenol resin (1), t = 93 days (50° C. per title)
[23] = can: Epoxy phenol resin (2), t = 93 days (50° C. per title)
[24] = can: Epoxy phenol resin (3), t = 93 days (50° C. per title)

CCC[C@@H]1O[C@@H]2C[C@H]3[C@@H]4CCC5=CC(=O)C=C[C@]5(C)[C@H]4[C@@H](O)C[C@]3(C)[C@]2(C(=O)CO)O1 [dexbudesonide]
percent drug remaining ([1]; 200 μg/dose, 15% (w/w) ethanol, 1.3% (w/w) glycerol, HFA 134a, 8 months at 40° C., average of two tests): 95.4%
epimeric distribution ([1]; Example 4 composition, stored at 40° C.): no transfer from the 22R to the 22S epimer
epimeric distribution ([2]; Example 5 compositions, anodised aluminium cans, 70 days at 50° C.): no transfer from the 22R to the 22S epimer
% Residual dexbudesonide ([2]; metered dose 30 μg, ethanol 5% (w/w), IPM 0.9% (w/w), t = 0 days): 98.1%
% Residual dexbudesonide [2, 8]: 96.8%
% residual dexbudesonide relative to t = 0 [2, 8]: (98.7) %
% Residual dexbudesonide ([2]; metered dose 30 μg, ethanol 5% (w/w), PEG 400 0.9% (w/w), t = 0 days): 95.8%
% Residual dexbudesonide [2, 9]: 95.8%
% residual dexbudesonide relative to t = 0 [2, 9]: (100) %
% Residual dexbudesonide ([2]; metered dose 50 μg, ethanol 8% (w/w), IPM 0.9% (w/w), t = 0 days): 98.0%
% Residual dexbudesonide [2, 10]: 99.4%
% residual dexbudesonide relative to t = 0 [2, 10]: (101) %
% Residual dexbudesonide ([2]; metered dose 50 μg, ethanol 8% (w/w), PEG 400 0.9% (w/w), t = 0 days): 99.0%
% Residual dexbudesonide [2, 11]: 98.0%
% residual dexbudesonide relative to t = 0 [2, 11]: (98.9) %
% Residual dexbudesonide ([2]; metered dose 70 μg, ethanol 7% (w/w), IPM 0.9% (w/w), t = 0 days): 100.4%
% Residual dexbudesonide [2, 12]: 96.3%
% residual dexbudesonide relative to t = 0 [2, 12]: (96.0) %
% Residual dexbudesonide ([2]; metered dose 70 μg, ethanol 7% (w/w), PEG 400 0.9% (w/w), t = 0 days): 95.7%
% Residual dexbudesonide [2, 13]: 93.75%
% residual dexbudesonide relative to t = 0 [2, 13]: (98.0) %
MMAD ([3]; HFA 134a solution formulation, 14.4 mg/can (60 μg/shot), ethanol 8% (w/w)): 2.0 μm
FPF [3, 14]: 73.6% and 77.4%
Delivered dose [3, 14]: 54.2 µg and 50.9 µg
FPD [3, 14]: 39.9 µg and 39.4 µg
Metered dose [3, 14]: 57.9 µg and 53.2 µg
FPF [3, 15]: 75.5%
Delivered dose [3, 15]: 59.7 µg
FPD [3, 15]: 45.0 µg
Metered dose [3, 15]: 63.9 µg
FPF [3, 16]: 78.9%
Delivered dose [3, 16]: 61.5 µg
FPD [3, 16]: 48.5 µg
Metered dose [3, 16]: 65.5 µg
MMAD ([3]; HFA 227 solution formulation, 15.12 mg/can (63 μg/shot), ethanol 7% (w/w)): 2.0 μm

CC(C)[N+]1(C)[C@@H]2CC[C@H]1CC(OC(=O)C(CO)c1ccccc1)C2.[Br-] (some centres unmarked) [ipratropium bromide]
% RESIDUAL IPBr ([4]; acid: Ascorbic, t = 0): 119%
% RESIDUAL IPBr ([4]; acid: Ascorbic, t = 1 month at 40° C.): 113%
% RESIDUAL IPBr ([4]; acid: Ascorbic, t = 2 months at 40° C.): 112%
% RESIDUAL IPBr ([4]; acid: Ascorbic, t = 5 months at 40° C.): 110%
% RESIDUAL IPBr ([4]; acid: Citric (0.07% w/w), t = 1 month at 40° C.): 98%
% RESIDUAL IPBr ([4]; acid: Citric (0.3% w/w), t = 2 months at 40° C.): 100%
% RESIDUAL IPBr ([4]; acid: Citric (0.6% w/w), t = 0): 98%
% RESIDUAL IPBr ([4]; acid: Citric (0.6% w/w), t = 1 month at 40° C.): 98%
% RESIDUAL IPBr ([4]; acid: Hydrochloric (4 μl-1 N), t = 0): 101%
% RESIDUAL IPBr ([4]; acid: Hydrochloric (4 μl-1 N), t = 1 month at 40° C.): 100%
% RESIDUAL IPBr ([4]; acid: Hydrochloric (4 μl-1 N), t = 2 months at 40° C.): 104%
% RESIDUAL IPBr ([4]; acid: Hydrochloric (10 μl-1 N), t = 0): 101%
% RESIDUAL IPBr ([4]; acid: Hydrochloric (10 μl-1 N), t = 1 month at 40° C.): 98%
% RESIDUAL IPBr ([4]; acid: Hydrochloric (10 μl-1 N), t = 2 months at 40° C.): 98%
% RESIDUAL IPBr ([4]; acid: Hydrochloric (20 μl-1 N), t = 0): 100%
% RESIDUAL IPBr ([4]; acid: Hydrochloric (20 μl-1 N), t = 2 months at 40° C.): 98%
% RESIDUAL IPBr ([4]; acid: None, t = 2 months at 40° C.): 98%

CC1(C)O[C@@H]2C[C@H]3[C@@H]4C[C@H](F)C5=CC(=O)C=C[C@]5(C)[C@H]4[C@@H](O)C[C@]3(C)[C@]2(C(=O)CO)O1 [flunisolide]
% RESIDUAL FLUNISOLIDE ([5]; can: Anodised aluminum, t = 0): 101.6%
% RESIDUAL FLUNISOLIDE [5, 17]: 100.4%
% RESIDUAL FLUNISOLIDE RELATIVE TO t = 0 [5, 17]: (98.8) %
% RESIDUAL FLUNISOLIDE ([5]; can: Epoxy phenol resin (1), t = 0): 98.4%
% RESIDUAL FLUNISOLIDE ([5]; can: Epoxy phenol resin (2), t = 0): 101.9%
% RESIDUAL FLUNISOLIDE [5, 18]: 99.7%
% RESIDUAL FLUNISOLIDE RELATIVE TO t = 0 [5, 18]: (97.8) %
% RESIDUAL FLUNISOLIDE [5, 19]: 99.2%
% RESIDUAL FLUNISOLIDE [6, 20]: 100.7%
% RESIDUAL FLUNISOLIDE RELATIVE TO t = 0 [6, 20]: (99.1) %
% RESIDUAL FLUNISOLIDE [6, 21]: 99.2%
% RESIDUAL FLUNISOLIDE RELATIVE TO t = 0 [6, 21]: (101) %
% RESIDUAL FLUNISOLIDE [6, 22]: 101.4%
% RESIDUAL FLUNISOLIDE RELATIVE TO t = 0 [6, 22]: (103) %
% RESIDUAL FLUNISOLIDE [6, 23]: 101.9%
% RESIDUAL FLUNISOLIDE RELATIVE TO t = 0 [6, 23]: (100) %
% RESIDUAL FLUNISOLIDE ([6]; can: Epoxy phenol resin (3), t = 0): 101.7%
% RESIDUAL FLUNISOLIDE RELATIVE TO t = 0 [6, 19]: (97.5) %
% RESIDUAL FLUNISOLIDE [6, 24]: 101.2%
% RESIDUAL FLUNISOLIDE RELATIVE TO t = 0 [6, 24]: (99.6) %
% RESIDUAL FLUNISOLIDE ([6]; can: Glass type III, t = 93 days (50° C. per title)): 97.5%
decomposition in containers [7]: decomposes only in plastic cans
